From US20170121322A1, “BET-PROTEIN INHIBITING 3,4-DIHYDROPYRIDO[2,3-B]PYRAZINONES WITH META-SUBSTITUTED AROMATIC AMINO- OR ETHER GROUPS” (Bayer Pharma Aktiengesellschaft, priority 2014, published 2017)
pIC50: −log10 of the molar value.

Key:
[1] = target: T1, BRD4 bromo domain 2 [BRD4(2)] (Homo sapiens, UniProt O60885); test: BRD4(2)/acetylated peptide H4 TR-FRET binding assay; conditions: His6-BRD4(2) (aa 357-445) vs acetylated histone H4 peptide
T1 construct: N-terminally His6-tagged BRD4(2) (amino acids 357-445); made in house; host or cells: E. coli
Excerpt: To assess the BRD4(2) binding strength of the substances described in this application, the ability thereof to inhibit the interaction between BRD4(2) and acetylated histone H4 in a dose-dependent manner was quantified.
For this purpose, a time-resolved fluorescence resonance energy transfer (TR-FRET) assay was used, which measures the binding between N-terminally His6-tagged BRD4(2) (amino acids 357-445) and a synthetic acetylated histone H4 (Ac-H4) peptide with sequence SGRGK(Ac)GGK(Ac)GLGK(Ac)GGAK(Ac)RHRKVLRDNGSGSK-biotin. The recombinant BRD4(2) protein produced in-house according to Filippakopoulos et al., Cell, 2012, 149:214-231 was expressed in E. coli and purified by means of (Ni-NTA) affinity and (Sephadex G-75) size exclusion chromatography. The Ac-H4 peptide can be purchased, for example, from Biosyntan (Berlin, Germany).
In the assay, typically 11 different concentrations of each substance (0.1 nM, 0.33 nM, 1.1 nM, 3.8 nM, 13 nM, 44 nM, 0.15 μM, 0.51 μM, 1.7 μM, 5.9 μM and 20 μM) were analysed as duplicates on the same microtitre plate. For this purpose, 100-fold concentrated solutions in DMSO were prepared by serial dilutions (1:3.4) of a 2 mM stock solution into a clear, 384-well microtitre plate (Greiner Bio-One, Frickenhausen, Germany). From this, 50 nl were transferred into a black test plate (Greiner Bio-One, Frickenhausen, Germany). The test was started by the addition of 2 μl of a 2.5-fold concentrated BRD4(2) solution (final concentration typically 100 nM in the 5 μl of reaction volume) in aqueous assay buffer [50 mM HEPES pH 7.5, 50 mM sodium chloride (NaCl); 50 mM potassium fluoride (KF); 0.25 mM CHAPS and 0.05% serum albumin (BSA)] to the substances in the test plate. This was followed by a 10-minute incubation step at 22° C. for the pre-equilibration of putative complexes between BRD4(2) and the substances.
The mixture was then incubated in the dark at 22° C. for one hour and then at 4° C. for at least 3 hours and for no longer than overnight. The formation of BRD4(2)/Ac-H4 complexes was determined by the measurement of the resonance energy transfer from the streptavidin-Eu chelate to the anti-6His-XL665 antibody present in the reaction. For this purpose, the fluorescence emission was measured at 620 nm and 665 nm after excitation at 330-350 nm in a TR-FRET measuring instrument, for example a Rubystar or Pherastar (both from BMG Lab Technologies, Offenburg, Germany) or a Viewlux (Perkin-Elmer). The ratio of the emissions at 665 nm and at 622 nm was taken as an indicator of the amount of BRD4(2)/Ac-H4 complexes formed.
The data (ratios) obtained were normalized, with 0% inhibition corresponding to the mean from the measurements for a set of controls (typically 32 data points) in which all the reagents were present. In these, in place of test substances, 50 nl of DMSO (100%) were used. Inhibition of 100% corresponded to the mean from the measurements for a set of controls (typically 32 data points) in which all the reagents except BRD4(2) were present. The IC50 was determined by regression analysis based on a 4-parameter equation (minimum, maximum, IC50, Hill; Y=Max+(Min−Max)/(1+(X/IC50)Hill)).

MOLP-8 cells = test: Cell proliferation assay MOLP-8 (alamarBlue); type: cell-based; conditions: Homo sapiens, multiple myeloma cells, 120 hours
Description: In accordance with the invention, the ability of the substances to inhibit cell proliferation was determined. Cell viability was determined by means of the alamarBlue® reagent (Invitrogen) in a Victor X3 Multilabel Reader (Perkin Elmer). The excitation wavelength was 530 nm and the emission wavelength […].
The MOLP-8 cells (DSMZ, ACC 569) were seeded at a concentration of 4000 cells/well in 100 μl of growth medium (RPMI1640, 20% FCS) on 96-well microtitre plates.
After overnight incubation at 37° C., the fluorescence values (CI values) were determined. Then the plates were treated with various substance dilutions (1E-5 M, 3E-6 M, 1E-6 M, 3E-7 M, 1E-7 M, 3E-8 M, 1E-8 M) and incubated at 37° C. over 96 hours (MOLM-13, B16F10, CHL-1 cells) or 120 hours (MOLP-8 cells). Subsequently, the fluorescence values were determined (CO values). For the data analysis, the CI values were subtracted from the CO values and the results were compared between cells which had been treated with various dilutions of the substance or only with buffer solution. The IC50 values (substance concentration needed for 50% inhibition of cell proliferation) were calculated therefrom.
The substances were tested in the cell lines in Table 2, which represent the indications specified by way of example: […]

Compound | pIC50 [1] | pIC50 (MOLP-8 cells)
COc1ccc(S(=O)(=O)C2CCOCC2)cc1Nc1ccc2c(n1)N(C1CCN(C)CC1)[C@H](C)C(=O)N2C [Example 22, (3R)-6-{[2-Methoxy-5-(tetrahydro-2H-pyran-4-ylsulphonyl)phenyl]amino}-1,3-dimethyl-4-(1-methylpiperidin-4-yl)-3,4-dihydropyrido[2,3-b]pyrazin-2(1H)-one] | 7.27 | –
CC(C)S(=O)(=O)c1cccc(Nc2ccc3c(n2)N(C2CCOCC2)[C@H](C)C(=O)N3C)c1 [Example 7, (3R)-6-{[3-(Isopropylsulphonyl)phenyl]amino}-1,3-dimethyl-4-(tetrahydro-2H-pyran-4-yl)-3,4-dihydropyrido[2,3-b]pyrazin-2(1H)-one] | 7.36 | 7.12
COc1ccc(S(=O)(=O)C(C)C)cc1Nc1ccc2c(n1)N(C1CCN(CC(F)(F)F)CC1)[C@H](C)C(=O)N2C [Example 28, (3R)-6-{[5-(Isopropylsulphonyl)-2-methoxyphenyl]amino}-1,3-dimethyl-4-[1-(2,2,2-trifluoroethyl)piperidin-4-yl]-3,4-dihydropyrido[2,3-b]pyrazin-2(1H)-one] | 7.20 | –
Cc1cc(Nc2ccc3c(n2)N(C2CCOCC2)[C@H](C)C(=O)N3C)ccn1 [Example 42, (3R)-1,3-Dimethyl-6-[(2-methylpyridin-4-yl)amino]-4-(tetrahydro-2H-pyran-4-yl)-3,4-dihydropyrido[2,3-b]pyrazin-2(1H)-one] | 6.74 | 6.36
COc1ccc(S(=O)(=O)C2CC2)cc1Nc1ccc2c(n1)N(C(C)C)[C@H](C)C(=O)N2C [Example 15, (3R)-6-{[5-(Cyclopropylsulphonyl)-2-methoxyphenyl]amino}-4-isopropyl-1,3-dimethyl-3,4-dihydropyrido[2,3-b]pyrazin-2(1H)-one] | 7.31 | 6.93
C[C@@H]1C(=O)N(C)c2ccc(Nc3cccc(S(C)(=O)=O)c3)nc2N1C1CCOCC1 [Example 1, (3R)-1,3-Dimethyl-6-{[3-(methylsulphonyl)phenyl]amino}-4-(tetrahydro-2H-pyran-4-yl)-3,4-dihydropyrido[2,3-b]pyrazin-2(1H)-one] | 6.92 | 6.69
COc1ccc(S(=O)(=O)C2CC2)cc1Nc1ccc2c(n1)N(C1CCN(C)CC1)[C@H](C)C(=O)N2C [Example 12, (3R)-6-{[5-(Cyclopropylsulphonyl)-2-methoxyphenyl]amino}-1,3-dimethyl-4-(1-methylpiperidin-4-yl)-3,4-dihydropyrido[2,3-b]pyrazin-2(1H)-one] | 7.17 | 7.66
COc1cc(Nc2ccc3c(n2)N(C2CCOCC2)[C@H](C)C(=O)N3C)cc(S(C)(=O)=O)c1 [Example 40, (3R)-6-{[3-Methoxy-5-(methylsulphonyl)phenyl]amino}-1,3-dimethyl-4-(tetrahydro-2H-pyran-4-yl)-3,4-dihydropyrido[2,3-b]pyrazin-2(1H)-one] | 7.03 | –
CC(C)S(=O)(=O)c1ccc(OC(F)(F)F)c(Nc2ccc3c(n2)N(C2CCN(C)CC2)[C@H](C)C(=O)N3C)c1 [Example 20, (3R)-6-{[5-(Isopropylsulphonyl)-2-(trifluoromethoxy)phenyl]amino}-1,3-dimethyl-4-(1-methylpiperidin-4-yl)-3,4-dihydropyrido[2,3-b]pyrazin-2(1H)-one] | 7.19 | –
CC(C)S(=O)(=O)c1cccc(Nc2ccc3c(n2)N(C2CCN(C)CC2)[C@H](C)C(=O)N3C)c1 [Example 19, (3R)-6-{[3-(Isopropylsulphonyl)phenyl]amino}-1,3-dimethyl-4-(1-methylpiperidin-4-yl)-3,4-dihydropyrido[2,3-b]pyrazin-2(1H)-one] | 7.33 | –
COc1ccc(S(=O)(=O)C(F)(F)F)cc1Nc1ccc2c(n1)N(C1CCOCC1)[C@H](C)C(=O)N2C [Example 39, (3R)-6-({2-Methoxy-5-[(trifluoromethyl)sulphonyl]phenyl}amino)-1,3-dimethyl-4-(tetrahydro-2H-pyran-4-yl)-3,4-dihydropyrido[2,3-b]pyrazin-2(1H)-one] | 7.25 | –
COc1ccc(S(=O)(=O)C2CCC2)cc1Nc1ccc2c(n1)N(C1CCOCC1)[C@H](C)C(=O)N2C [Example 35, (3R)-6-{[5-(Cyclobutylsulphonyl)-2-methoxyphenyl]amino}-1,3-dimethyl-4-(tetrahydro-2H-pyran-4-yl)-3,4-dihydropyrido[2,3-b]pyrazin-2(1H)-one] | 7.29 | –
COc1ccc(S(C)(=O)=O)cc1Nc1ccc2c(n1)N(C1CCNCC1)[C@H](C)C(=O)N2C [Example 27, (3R)-6-{[2-Methoxy-5-(methylsulphonyl)phenyl]amino}-1,3-dimethyl-4-(piperidin-4-yl)-3,4-dihydropyrido[2,3-b]pyrazin-2(1H)-one] | 7.08 | –
COc1ccc(S(=O)(=O)C(C)C)cc1Nc1ccc2c(n1)N(C1CCNCC1)[C@H](C)C(=O)N2C [Example 26, (3R)-6-{[5-(Isopropylsulphonyl)-2-methoxyphenyl]amino}-1,3-dimethyl-4-(piperidin-4-yl)-3,4-dihydropyrido[2,3-b]pyrazin-2(1H)-one] | 7.28 | –
COc1ccc(S(=O)(=O)C(F)(F)F)cc1Nc1ccc2c(n1)N(C1CCN(C)CC1)[C@H](C)C(=O)N2C [Example 21, (3R)-6-({2-Methoxy-5-[(trifluoromethyl)sulphonyl]phenyl}amino)-1,3-dimethyl-4-(1-methylpiperidin-4-yl)-3,4-dihydropyrido[2,3-b]pyrazin-2(1H)-one] | 7.24 | –
CC(C)S(=O)(=O)c1ccc(OC(F)(F)F)c(Nc2ccc3c(n2)N(C2CCOCC2)[C@H](C)C(=O)N3C)c1 [Example 38, (3R)-6-{[5-(Isopropylsulphonyl)-2-(trifluoromethoxy)phenyl]amino}-1,3-dimethyl-4-(tetrahydro-2H-pyran-4-yl)-3,4-dihydropyrido[2,3-b]pyrazin-2(1H)-one] | 7.28 | –
COc1ccc(S(=O)(=O)C2CCOCC2)cc1Nc1ccc2c(n1)N(C1CCOCC1)[C@H](C)C(=O)N2C [Example 34, (3R)-6-{[2-Methoxy-5-(tetrahydro-2H-pyran-4-ylsulphonyl)phenyl]amino}-1,3-dimethyl-4-(tetrahydro-2H-pyran-4-yl)-3,4-dihydropyrido[2,3-b]pyrazin-2(1H)-one] | 7.36 | –
COc1ccc(S(=O)(=O)C(C)C)cc1Nc1ccc2c(n1)N(C1CCN(CCC(F)(F)F)CC1)[C@H](C)C(=O)N2C [Example 31, (3R)-6-{[5-(Isopropylsulphonyl)-2-methoxyphenyl]amino}-1,3-dimethyl-4-[1-(3,3,3-trifluoropropyl)piperidin-4-yl]-3,4-dihydropyrido[2,3-b]pyrazin-2(1H)-one] | 7.17 | –
COc1ccc(S(=O)(=O)C(C)C)cc1Nc1ccc2c(n1)N(C1CCN(CC(F)F)CC1)[C@H](C)C(=O)N2C [Example 29, (3R)-4-[1-(2,2-Difluoroethyl)piperidin-4-yl]-6-{[5-(isopropylsulphonyl)-2-methoxyphenyl]amino}-1,3-dimethyl-3,4-dihydropyrido[2,3-b]pyrazin-2(1H)-one] | 7.17 | –
